From patent publication US9504672B2, “Compositions and methods for treating or preventing pneumovirus infection and associated diseases” (MicroDose Therapeutx, Inc., priority 2012, dated 2016)
Where two headings read alike, the source gives them in different places.

Tests used:
[1] = for Total Imp/Deg: listed as P224-163-1; for number of impurity peaks: listed as P-3
Method: Forced degradation experiments consisted of placing solid samples of P-2 hydrate and P-3 dihydrate materials in sealed glass bottles at 120° C. for 7 days.

[2] = clinical; conditions: human, in vivo, 132 ug
[3] = Slurry of equal mixture of six phases in 75/25 acetone-water (PXRD); format: physicochemical; conditions: 25° C., 12 days, listed as P-3
Method: An equal powder mixture of six known phases (P-2, P-3, P-4, P-6, P-7 and P-8), 50 mg each were stirred in 75/25 acetone-water solvent (50 mL) at 25° C. over 12 days.

[4] = Specific surface area (BET); format: physicochemical
[5] = Storage stability of micronized API in amber glass bottles (DSC, PXRD); format: physicochemical; conditions: 25° C./60% RH and 40° C./75% RH, through 12 months
Method: The micronized, P-3 dihydrate material was stored in 1.85 mL amber bottles with Teflon lined caps. The 25° C./60% RH and 40° C./75% RH simulated storage and worst-case storage conditions correspondingly.

[6] = 40° C./75% RH, 4 weeks
[7] = Bulk powder density and flow indices (volumetric); format: physicochemical
[8] = Particle size of micronized material (Sympatec HELOS & RODOS); format: physicochemical
[9] = Critical water activity by DVS sorption/desorption isotherms; format: physicochemical; conditions: 20° C.
Source text: The characteristic gravimetric loss of water is between 1-4.5% w/w.
The characteristic gravimetric loss of water for P-3 dihydrate is between 5.5-8.5% w/w. The profound difference of the DVS curves between the P-2 and P-3 forms can be utilized as a secondary technique for quantitative phase analysis of these forms.

[10] = Stability of lactose formulation at 40° C./75% RH, sealed glass bottles, 39 weeks; format: physicochemical; conditions: lactose formulation 6.3% w/w
Method: Formulation of the P-3 dihydrate form of the API with lactose (6.3% w/w) was placed on stability 40° C./75% RH in sealed glass bottles for 39 weeks. After samples removal, the lactose was removed by dissolution in purified water. The reference formulation was also subjected to the same lactose extraction procedure to eliminate the possibility for form conversion in water.

[11] = Competitive slurry stability study between P-2 and P-3 (PXRD quantitative phase analysis); format: physicochemical; conditions: 50/50 acetonitrile/water, 25° C., over 10 days
[12] = human, in vivo
[13] = human, in vivo; remark: listed apart in the source
[14] = Crystal (skeletal) density by nitrogen pycnometry; format: physicochemical
[15] = human, in vivo; remark: listed apart in the source
Source text: (§1) In summary, the MicroDose Inhaler operation comprises the drug powder contained in a protective blister until delivery. The blister is pierced externally and then placed in contact with a piezoelectric vibrator within the MicroDose Inhaler. When the patient inhales, an airflow sensor automatically turns on the piezo which provides energy to deaggregate the particles of powder and aerosolizes them into the inhalation airstream, providing synchronized delivery. The MicroDose Inhaler was triggered by pressure drop and programmed to produce a series of brief aerosol bursts of predetermined duration within the range of 0.1 to 2.0 seconds, preferably 0.1 seconds, early during each inhalation cycle and for 16 consecutive breaths. The studies were conducted as follows:
Study 3: A Double-Blind, Randomized, 3 Period Crossover, Single Ascending Dose Study to Assess the Safety and Tolerability of Inhaled MDT-637 P3 in Subjects with Intermittent or Mild-to-Moderate Persistent Asthma (Asthma Trial)
The primary objective of Study 3 was to assess the safety and tolerability of MDT-637 P3 when inhaled by subjects with Intermittent, or Mild-to-Moderate Persistent, Asthma. A secondary objective of Study 3 was to determine the rate and extent of systemic absorption of MDT-637 and trough nasal wash MDT-637 drug concentrations following dry powder inhalation dosing.
Each subject was dosed on 3 separate days during the study. Each subject received an initial dose of placebo (Period 1), followed by random allocation at Period 2 to a single dose of nasally inhaled MDT-637 P3 or double blind placebo. After an observation and furlough period, subjects returned for Period 3 to receive three doses of study drug (MDT-637 P3 or placebo) over a single day as listed below. The study consisted of 5 visits: Visit 1 (Screening), Visits 2, 3 and 4 (Dosing), and Visit 5 (Follow up); subjects were furloughed from the clinic for 6 up to 14 days between Visits 3 and 4 and 7-8 days between Visit 4 and 5. Subjects who met all of the inclusion criteria and none of the exclusion criteria (Table 19, FIG. 29) at Visit 1 were eligible to return for Visit 2 within 42 days of screening. Subjects were admitted to the study center twice, once for Visit 2 and again for Visit 4. Visit 5, was a safety follow up (outpatient) visit.
The doses of MDT-637 P3 were determined based on previous clinical experience in Study 1. Both placebo and active were administered as a dry powder for nasal inhalation via a face mask using a MicroDose Inhaler device. At Visit 2, all 10 patients were dosed with placebo Once Daily. At Visit 3, subjects were randomly allocated so that 8 subjects were dosed with MDT-637 P3 Once Daily 66 mcg and 2 subjects received double blind placebo. At Visit 4, subjects were again randomly allocated so that 8 subjects were dosed with MDT-637 TID 132 mcg and 2 subjects received double blind placebo.
Pharmacokinetic variables (Cmax, Tmax, AUC, T1/2) were evaluated based on blood samples drawn at Visit 4.

[16] = in vivo
Source text: The purpose of the following studies was to assess the safety, tolerability, local and systemic pharmacokinetics of single and multiple doses of MDT-637 P3 in healthy volunteers and asthmatics.
as §1, with “breaths.” for “breaths. The studies were conducted as follows:”

SMILES: Cc1nnnn1/N=C/c1ccc(O)c(C(c2ccc(O)cc2)c2cc(/C=N/n3nnnc3C)ccc2O)c1 [P-3 dihydrate, phenol, 2,2′-[(4-hydroxyphenyl)methylene]bis[4-[[(5-methyl-1H-tetrazol-1-yl)imino]methyl]]]
- Grand Total ([1]; 120C/7D): 99.8 Area %
- Total Imp/Deg ([1]; 120C/7D): 6.49 Area %
- Impurity/Degradation Product A ([1]; 7 days): 0.12 Area %
- Impurity/Degradation Product B ([1]; 7 days): 3.60 Area %
- Impurity/Degradation Product C ([1]; 7 days): 0.17 Area %
- Impurity/Degradation Product D ([1]; 7 days): 0.48 Area %
- Impurity/Degradation Product E ([1]; 7 days): 0.28 Area %
- Impurity/Degradation Product F ([1]; 7 days): 0.08 Area %
- Impurity/Degradation Product G ([1]; 7 days): 0.05 Area %
- Impurity/Degradation Product H ([1]; 7 days): 0.43 Area %
- Impurity/Degradation Product I ([1]; 7 days): 0.17 Area %
- Impurity/Degradation Product K ([1]; 7 days): 0.13 Area %
- Impurity/Degradation Product L ([1]; 7 days): 0.06 Area %
- Impurity/Degradation Product M ([1]; 7 days): 0.09 Area %
- Impurity/Degradation Product N ([1]; 7 days): 0.07 Area %
- Impurity/Degradation Product O ([1]; 7 days): 0.37 Area %
- Impurity/Degradation Product P ([1]; 7 days): 0.36 Area %
- Impurity/Degradation Product Q ([1]; 7 days): 0.05 Area %
- Grand Total ([1]; CTRL): 99.9 Area %
- Total Imp/Deg ([1]; CTRL): 1.16 Area %
- number of impurity peaks ([1]; control): 6 peaks
- number of impurity peaks ([1]; stressed sample, 120° C. for 7 days): 16 peaks
- AUC(0-t) [2]: 1.16 ng·h/mL
- form conversion / stability in six-phase slurry [3]: convert to P-2 hydrate
- Specific surface area [4]: 11.0 m^2/g
- change in form (DSC and PXRD) [5]: no change in form was observed
- Assay ([6]; open dish, listed as P-3): 96.7%
- Rel Subs ([6]; open dish, listed as P-3): 0.67%
- Water ([6]; open dish, listed as P-3): 5.9%
- change of form / solid-state stability (DSC and PXRD) ([6]; open wide glass bottles): no change of form
- chemical stability ([6]; open wide glass bottles): Acceptable chemical stability
- Carr index [7]: 27.5%
- Hausner ratio [7]: 1.38
- Poured bulk powder density [7]: 0.22 g/mL
- Tapped bulk powder density [7]: 0.30 g/mL
- Characteristic medium volume particle size (micronized) [8]: 1.5 μm
- transition point (monohydrate) ([9]; 1% RH steps, first of two transition points): approximately 3 % RH
- transition point (dihydrate) ([9]; 1% RH steps, second of two transition points): ~13 % RH
- Characteristic relative humidity of dehydration (20° C.) [9]: 3-17%
- change of crystal form in formulation with lactose [10]: stable against solid-state conversion
- form conversion in competitive slurry [11]: converts to P-2
- changes in pulmonary function / pulmonary AEs [12]: No significant changes in pulmonary function or reports of pulmonary AEs
- clinically significant changes in labs, vital signs, ECGs, physical exams [12]: No clinically significant changes
- treatment emergent adverse event considered possibly related by PI [12]: Mild dizziness
- nasal wash levels ([12]; 24 h): > MDT-637 P3's IC50 for RSV
- CVs of PK exposure [13]: 15-30%
- clinically significant changes in labs, vital signs, ECGs, physical exams [13]: No clinically significant changes
- TEAEs considered related to study treatment ([13]; 10 days): 5 TEAEs
- subjects reporting TEAEs ([13]; 10 days): 13 subjects
- subjects reporting no TEAEs ([13]; 10 days): 25 subjects
- total TEAEs overall ([13]; 10 days): 20 TEAEs
- Crystal (skeletal) density [14]: 1.61 g/mL
- clinically significant changes in labs, vital signs, ECGs, physical exams [15]: No clinically significant changes
- clinically significant changes in pulmonary function / pulmonary AEs [15]: No clinically significant changes in pulmonary function or reports of pulmonary AEs
- pharmacokinetics, asthmatic vs healthy population [15]: comparable between the healthy and asthmatic population
- subjects reporting adverse events ([15]; 3 separate dosing days): 2/10
- subjects reporting no adverse events ([15]; 3 separate dosing days): 8/10
- clinically significant changes in ECG, laboratory values, vital signs or physical exam [16]: no clinically significant changes
- pulmonary adverse events or changes in pulmonary function [16]: no pulmonary adverse events or changes in pulmonary function were observed
- serious adverse events [16]: no serious adverse events were observed
- systemic exposure [16]: highly consistent and low systemic exposure
